From patent publication US20260274832A1, “COMPOUNDS AND THEIR USE IN TREATING CANCER” (ASTRAZENECA AB, priority 2023, published 2026) come the findings set out here.

Experiment [1] addresses T1, AR (AR-full length) in LNCaP cells (Homo sapiens, UniProt P10275, T878A).
T1 construct: the prostate cancer cell line LNCaP (expressing AR-full length); endogenous in cells; host or cells: LNCaP
As to the kind of experiment: LNCaP Androgen Receptor Imaging Assay (immunofluorescence of endogenous nuclear AR). The note with it: 24 h incubation; for DC50: concentration giving 50% of maximum degradation of AR per curve fit, single experiment or average of two or more; for Dmax: LNCaP, maximum degradation observed, normalized as % of positive control (prior art AR PROTAC at 3 μM). It counts as cell-based. In outline:
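LNCaP cells (12,000/well) received a 12-point compound dose series (0.3% DMSO) for 24 h at 37° C., then were PFA-fixed and stained for AR (AR441) and nuclei (DRAQ5). Nuclear AR was quantified by imaging, normalized to a 3 μM AR PROTAC control; DC50 and Dmax came from Hill/bell curve fits.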

For experiment [2], the target named is T2, AR (L702H) in LNCaP cells (Homo sapiens, UniProt P10275, L702H/T878A).
T2 construct: engineered to introduce the mutation L702H into the AR gene using CRISPR/Cas9; endogenous in cells; host or cells: LNCaP cells edited by CRISPR/Cas9 at the AR gene
As to the kind of experiment: LNCaP Androgen Receptor L702H Imaging Assay (LNCaP cells engineered by CRISPR/Cas9). The format is cell-based. The note with it: LNCaP cells with AR L702H mutation, 24 h incubation; for DC50: concentration giving 50% of maximum degradation of AR (L702H) per curve fit; for Dmax: LNCaP, maximum degradation observed, normalized as % of positive control. In outline: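 CRISPR-engineered LNCaP cells carrying AR L702H were treated 24 h at 37 °C with a 12-point compound dose response (0.3% DMSO), then fixed and immunostained for AR with DRAQ5 nuclear counterstain. Nuclear AR was quantified by imaging, normalized to positive control; DC50 and Dmax came from Hill or bell-shaped fits.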

T2 sequence (P10275 whole entry L702H/T878A): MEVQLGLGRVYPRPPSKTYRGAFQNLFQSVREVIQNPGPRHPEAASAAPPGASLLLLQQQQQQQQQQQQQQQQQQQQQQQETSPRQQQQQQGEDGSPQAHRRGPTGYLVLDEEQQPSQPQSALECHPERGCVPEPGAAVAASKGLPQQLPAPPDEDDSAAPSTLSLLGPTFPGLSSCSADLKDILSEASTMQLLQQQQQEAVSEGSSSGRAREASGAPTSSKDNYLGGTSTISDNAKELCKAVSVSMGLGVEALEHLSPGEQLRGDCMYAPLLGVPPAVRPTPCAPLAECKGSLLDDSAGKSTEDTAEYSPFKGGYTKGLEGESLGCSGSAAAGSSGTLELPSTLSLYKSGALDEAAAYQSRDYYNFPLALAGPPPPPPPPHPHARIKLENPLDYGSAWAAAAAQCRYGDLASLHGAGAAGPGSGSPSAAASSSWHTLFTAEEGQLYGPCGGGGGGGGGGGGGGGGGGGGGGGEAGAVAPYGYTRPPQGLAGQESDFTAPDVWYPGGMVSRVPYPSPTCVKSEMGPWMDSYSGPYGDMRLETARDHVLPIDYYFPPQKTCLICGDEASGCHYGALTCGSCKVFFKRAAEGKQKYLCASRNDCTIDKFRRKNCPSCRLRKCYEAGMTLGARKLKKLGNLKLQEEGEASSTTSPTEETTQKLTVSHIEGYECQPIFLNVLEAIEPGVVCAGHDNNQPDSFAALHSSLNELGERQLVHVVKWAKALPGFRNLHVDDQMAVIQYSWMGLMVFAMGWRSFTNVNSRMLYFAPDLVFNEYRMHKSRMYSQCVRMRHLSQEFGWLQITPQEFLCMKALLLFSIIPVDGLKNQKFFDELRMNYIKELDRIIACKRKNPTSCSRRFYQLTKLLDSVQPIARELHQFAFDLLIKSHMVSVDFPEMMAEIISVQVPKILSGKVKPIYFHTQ
T2 sequence (Q96SW2 whole entry partner): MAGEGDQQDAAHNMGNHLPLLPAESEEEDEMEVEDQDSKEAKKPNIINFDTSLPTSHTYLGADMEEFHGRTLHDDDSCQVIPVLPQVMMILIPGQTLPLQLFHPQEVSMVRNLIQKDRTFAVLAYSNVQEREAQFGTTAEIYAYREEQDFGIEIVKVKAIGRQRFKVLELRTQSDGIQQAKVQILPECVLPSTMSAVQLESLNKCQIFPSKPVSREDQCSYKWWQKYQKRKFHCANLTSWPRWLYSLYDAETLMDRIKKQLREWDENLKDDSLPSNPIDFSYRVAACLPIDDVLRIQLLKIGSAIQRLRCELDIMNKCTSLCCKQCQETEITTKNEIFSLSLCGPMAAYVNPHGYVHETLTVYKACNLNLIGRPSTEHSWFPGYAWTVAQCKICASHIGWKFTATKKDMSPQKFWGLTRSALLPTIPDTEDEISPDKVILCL
T1 sequence (P10275 whole entry T878A): as the sequence (P10275 whole entry L702H/T878A) above, with H702L counted along it
T1 sequence (Q96SW2 whole entry partner): as the sequence (Q96SW2 whole entry partner) above

Take `N#Cc1c[nH]c2c(N3CCC(c4ccc(N5CCC(CN6CCN(c7ccc8c(c7)CN(C7CCC(=O)NC7=O)C8=O)CC6)CC5)nn4)CC3)ccc(Cl)c12` (stereo not shown) [Example 64, 4-Chloro-7-(4-{6-[4-({4-[2-(2,6-dioxopiperidin-3-yl)-1-oxo-2,3-dihydro-1H-isoindol-5-yl]piperazin-1-yl}methyl)piperidin-1-yl]pyridazin-3-yl}piperidin-1-yl)-1H-indole-3-carbonitrile]: in experiment [1], the DC50 stood at 5 nM and the Dmax worked out at 83%. In experiment [2], the half-maximal degradation concentration (DC50) was 8 nM and the Dmax is 56%.

Turning to `N#Cc1c[nH]c2c(N3CCC(c4cnc(N5CCC(CN6CCC(n7ccc8c(N9CCC(=O)NC9=O)cccc87)CC6)CC5)cn4)CC3)ccc(Cl)c12` [Example 67], the DC50 in experiment [1] turned out to be 4 nM; in experiment [2], 14 nM. The Dmax in experiment [1] was 98%; in experiment [2], 87%.

Take `N#Cc1c[nH]c2c(N3CCC(c4cnc(N5CCC(CN6CCN(c7ccc8c(c7)CN(C7CCC(=O)NC7=O)C8=O)CC6)CC5)cn4)CC3)ccc(Cl)c12` (stereo not shown) [Example 68, 4-Chloro-7-(4-{5-[4-({4-[2-(2,6-dioxopiperidin-3-yl)-1-oxo-2,3-dihydro-1H-isoindol-5-yl]piperazin-1-yl}methyl)piperidin-1-yl]pyrazin-2-yl}piperidin-1-yl)-1H-indole-3-carbonitrile]: in experiment [1], half-maximal degradation (DC50) was put at 6 nM and the Dmax was found to be 97%. Also, in experiment [2], it took 21 nM to reach half-maximal degradation (DC50) and the Dmax came to 84%.

For `Cc1ccc(N2CCC(c3ccc(N4CCC(CN5CCN(Cc6cccc7c6n(C)c(=O)n7C6CCC(=O)NC6=O)CC5)CC4)cc3)CC2)c2[nH]cc(C#N)c12` (stereo not shown) [Example 69, 7-[4-(4-{4-[(4-{[1-(2,6-Dioxopiperidin-3-yl)-3-methyl-2-oxo-2,3-dihydro-1H-benzimidazol-4-yl]methyl}piperazin-1-yl)methyl]piperidin-1-yl}phenyl)piperidin-1-yl]-4-methyl-1H-indole-3-carbonitrile], the figures for the 50% degradation concentration (DC50) in experiment [1] and in experiment [2] were 9 nM and 5 nM, respectively. For the same compound, the Dmax in experiment [1] amounted to 92%; in experiment [2], 94%.

As to `Cn1c(=O)n(C2CCC(=O)NC2=O)c2cccc(CN3CCN(CC4CCN(c5ccc(C6CCN(c7ccc(Cl)c8c(C#N)c[nH]c78)CC6)cc5)CC4)CC3)c21` (stereo not shown) [Example 70, 4-Chloro-7-[4-(4-{4-[(4-{[1-(2,6-dioxopiperidin-3-yl)-3-methyl-2-oxo-2,3-dihydro-1H-benzimidazol-4-yl]methyl}piperazin-1-yl)methyl]piperidin-1-yl}phenyl)piperidin-1-yl]-1H-indole-3-carbonitrile], the 50% degradation concentration (DC50) in experiment [1] and in experiment [2] was 9 nM each time. Moreover, the Dmax in experiment [1] stood at 97%; in experiment [2] it was 101%.

`Cn1c(=O)n(C2CCC(=O)NC2=O)c2cccc(CN3CCN(CC4CCN(c5ccc(C6CCN(c7ccc(F)c8c(C#N)c[nH]c78)CC6)cc5)CC4)CC3)c21` (stereo not shown) [Example 71, 7-[4-(4-{4-[(4-{[1-(2,6-Dioxopiperidin-3-yl)-3-methyl-2-oxo-2,3-dihydro-1H-benzimidazol-4-yl]methyl}piperazin-1-yl)methyl]piperidin-1-yl}phenyl)piperidin-1-yl]-4-fluoro-1H-indole-3-carbonitrile]: in experiment [1], half-maximal degradation (DC50) was put at 7 nM and the Dmax turned out to be 84%. In experiment [2], the DC50 turned out to be 7 nM and the Dmax was found to be 94%.

For the compound `Cn1c(=O)n(C2CCC(=O)NC2=O)c2cccc(N3CCN(CC4CCN(c5ccc(C6CCN(c7ccc(Cl)c8c(C#N)c[nH]c78)CC6)cc5)CC4)CC3)c21` (stereo not shown) [Example 72, 4-Chloro-7-(4-{4-[4-({4-[1-(2,6-dioxopiperidin-3-yl)-3-methyl-2-oxo-2,3-dihydro-1H-benzimidazol-4-yl]piperazin-1-yl}methyl)piperidin-1-yl]phenyl}piperidin-1-yl)-1H-indole-3-carbonitrile], the half-maximal degradation concentration (DC50) in experiment [1] was found to be 14 nM; in experiment [2], 21 nM. For the same compound, the Dmax in experiment [1] was 91%; in experiment [2], 92%.

Turning to `Cn1c(=O)n(C2CCC(=O)NC2=O)c2cccc(CN3CCN(CC4CCN(c5ccc([C@@H]6CCCN(c7ccc(Cl)c8c(C#N)c[nH]c78)C6)cc5)CC4)CC3)c21` (stereo partly drawn) [Example 73, 4-Chloro-7-[(3S)-3-(4-{4-[(4-{[1-(2,6-dioxopiperidin-3-yl)-3-methyl-2-oxo-2,3-dihydro-1H-benzimidazol-4-yl]methyl}piperazin-1-yl)methyl]piperidin-1-yl}phenyl)piperidin-1-yl]-1H-indole-3-carbonitrile], in experiment [1], the DC50 stood at 7 nM and the Dmax was 93%. In experiment [2], half-maximal degradation (DC50) was put at 13 nM and the Dmax came to 90%.

In the case of `Cn1c(=O)n(C2CCC(=O)NC2=O)c2cccc(CN3CCN(CC4CCN(c5ccc([C@@H]6CCCN(c7ccc(F)c8c(C#N)c[nH]c78)C6)cc5)CC4)CC3)c21` (stereo partly shown) [Example 74], the half-maximal degradation concentration (DC50) turned out to be 8 nM in experiment [1] and 21 nM in experiment [2]. In addition, the Dmax in experiment [1] is 93%; in experiment [2], 70%.

Turning to `N#Cc1c[nH]c2c(N3CCC(c4ccc(N5CCC(CN6Cc7cc8c(cc7C6)C(=O)N(C6CCC(=O)NC6=O)C8=O)CC5)cc4)CC3)ccc(Cl)c12` (stereo not shown) [Example 75, 4-Chloro-7-{4-[4-(4-{[6-(2,6-dioxopiperidin-3-yl)-5,7-dioxo-3,5,6,7-tetrahydropyrrolo[3,4-f]isoindol-2(1H)-yl]methyl}piperidin-1-yl)phenyl]piperidin-1-yl}-1H-indole-3-carbonitrile], in experiment [1], the DC50 came to 62 nM and the Dmax stood at 68%. Besides, in experiment [2], half-maximal degradation (DC50) was put at 68 nM and the Dmax is 83%.

For `N#Cc1n[nH]c2c(N3CCC[C@@H](c4ccc(N5CCC(CN6Cc7cc8c(cc7C6)C(=O)N(C6CCC(=O)NC6=O)C8=O)CC5)cc4)C3)ccc(Cl)c12` (stereo partly drawn) [Example 76, 4-Chloro-7-{(3S)-3-[4-(4-{[6-(2,6-dioxopiperidin-3-yl)-5,7-dioxo-3,5,6,7-tetrahydropyrrolo[3,4-f]isoindol-2(1H)-yl]methyl}piperidin-1-yl)phenyl]piperidin-1-yl}-1H-indazole-3-carbonitrile], in experiment [1], the 50% degradation concentration (DC50) worked out at 18 nM and the Dmax came to 92%. In experiment [2], the DC50 was found to be 38 nM and the Dmax stood at 104%.

On to `N#Cc1c[nH]c2c(N3CCC[C@@H](c4ccc(N5CCC(CN6Cc7cc8c(cc7C6)C(=O)N(C6CCC(=O)NC6=O)C8=O)CC5)cc4)C3)ccc(Cl)c12` (stereo partly drawn) [Example 77, 4-Chloro-7-{(3S)-3-[4-(4-{[6-(2,6-dioxopiperidin-3-yl)-5,7-dioxo-3,5,6,7-tetrahydropyrrolo[3,4-f]isoindol-2(1H)-yl]methyl}piperidin-1-yl)phenyl]piperidin-1-yl}-1H-indole-3-carbonitrile], for which, in experiment [1], the DC50 was 14 nM and the Dmax was found to be 79%. Further, in experiment [2], it took 67 nM to reach half-maximal degradation (DC50) and the Dmax is 69%.

Turning to `Cn1c(C2CCN(CC3CCN(c4ccc(C5CCN(c6ccc(Cl)c7c(C#N)c[nH]c67)CC5)cc4)CC3)CC2)cc2ccc(N3CCC(=O)NC3=O)cc21` [Example 84, 4-Chloro-7-(4-{4-[4-({4-[6-(2,4-dioxo-1,3-diazinan-1-yl)-1-methyl-1H-indol-2-yl]piperidin-1-yl}methyl)piperidin-1-yl]phenyl}piperidin-1-yl)-1H-indole-3-carbonitrile], in experiment [1], the DC50 amounted to 22 nM and the Dmax worked out at 99%. In experiment [2], the DC50 worked out at 12 nM and the Dmax amounted to 103%.

As to `N#Cc1c[nH]c2c(N3CCC(c4ccc(C(=O)N5CCC(CN6CCN(c7ccc8c(c7)CN(C7CCC(=O)NC7=O)C8=O)CC6)CC5)cc4)CC3)ccc(Cl)c12` (stereo not shown) [Example 85, 4-Chloro-7-(4-{4-[4-({4-[2-(2,6-dioxopiperidin-3-yl)-1-oxo-2,3-dihydro-1H-isoindol-5-yl]piperazin-1-yl}methyl)piperidine-1-carbonyl]phenyl}piperidin-1-yl)-1H-indole-3-carbonitrile], in experiment [1], the DC50 was determined as 4 nM and the Dmax turned out to be 98%. Moreover, in experiment [2], it took 17 nM to reach half-maximal degradation (DC50) and the Dmax worked out at 83%.

As for `COc1nc(N2CCN(C3CCN(c4ccc(C5CCN(c6ccc(Cl)c7c(C#N)c[nH]c67)CC5)cc4)CC3)CC2)cc2c1C(=O)N(C1CCC(=O)NC1=O)C2` (stereo not shown) [Example 86, 4-Chloro-7-{4-[4-(4-{4-[2-(2,6-dioxopiperidin-3-yl)-4-methoxy-3-oxo-2,3-dihydro-1H-pyrrolo[3,4-c]pyridin-6-yl]piperazin-1-yl}piperidin-1-yl)phenyl]piperidin-1-yl}-1H-indole-3-carbonitrile], in experiment [1], the DC50 is 15 nM and the Dmax stood at 94%. Besides, in experiment [2], the 50% degradation concentration (DC50) stood at 14 nM and the Dmax was determined as 99%.

Consider `COc1nc(N2CCN(CCC3CCN(c4ccc(C5CCN(c6ccc(Cl)c7c(C#N)c[nH]c67)CC5)cc4)CC3)CC2)cc2c1C(=O)N(C1CCC(=O)NC1=O)C2` (stereo not shown) [Example 87, 4-Chloro-7-(4-{4-[4-(2-{4-[2-(2,6-dioxopiperidin-3-yl)-4-methoxy-3-oxo-2,3-dihydro-1H-pyrrolo[3,4-c]pyridin-6-yl]piperazin-1-yl}ethyl)piperidin-1-yl]phenyl}piperidin-1-yl)-1H-indole-3-carbonitrile], for which the DC50 in experiment [1] is 5 nM; in experiment [2], 8 nM. The Dmax worked out at 95% in experiment [1] and 94% in experiment [2].
